Experiment [1] has as its system subjects. The experiment can be described thus: Stimulant effect: score in video game of skill (Pilot Wing). The experiment is classed as in vivo, human. The note with it: five subjects, crossover with placebo, 180 mg caffeine, Formulation I. How it is done: Five subjects were tested over a period of three days. […] Both prior to and after consuming the composition, each subject played a video game of skill called Pilot Wing™ made by Nintendo™.

The subject of experiment [2] is subjects. The experiment can be described thus: Standard short-term memory test (repeat series of numbers backward). Format: in vivo, human. The conditions noted are these: three of the five subjects, 30 minutes after ingestion. On the procedure:
The test consisted of an examiner reading a series of numbers to the subject and the subject subsequently being asked to repeat said numbers backward. In all cases, the test was initiated 30 minutes after ingestion of the composition.

We go through 1 compound from patent US6436946B1, “Xanthine-containing compositions for oral administration and uses related thereto” (priority 1997, dated 2002).

In the case of `Cn1c(=O)c2c(ncn2C)n(C)c1=O` [caffeine], in experiment [1], the “video game score after consuming the composition” value is on record as “higher scores after consuming the caffeine, compared to consuming the placebo”. Also, the “digits repeated backwards without error” value in experiment [2] is reported as “could not repeat this accomplishment”.
